No end group written: not given here.
Assays:
[1] = target: T1, endogenous GHSR1b and NTSR1 on LC319 cells (Homo sapiens, UniProt P30989+Q92847); assay: Receptor-ligand binding assay on LC319 cells
T1 construct: endogenous in cells; host or cells: LC319
Experimental: (§1) To further confirm binding of NMU-25 to the endogenous candidate receptors on the NSCLC cells, we performed receptor-ligand binding assay using the LC319 and PC-14 cells. Briefly, these cells trypsinized were seeded onto 96-well black-wall, clear-bottom microtiter plates 24 hours prior to the assay. The medium was removed and the cells were incubated with Cy5-NMU-25 with a 10-fold excess of unlabeled competitor. The plate was incubated in the dark for 24 hours at 37° C. and was scanned on the 8200 Cellular Detection System (Applied Biosystems). 8200 Analysis Software creates a digitized gray scale image, quantitates the amount of fluorescence bound on the surface of each cell, and enumerates the fluorescent cells.

[2] = target: T2, endogenous GHSR1b and NTSR1 on PC-14 cells (Homo sapiens, UniProt P30989+Q92847); assay: Receptor-ligand binding assay on PC-14 cells
T2 construct: endogenous in cells; host or cells: PC-14
Experimental: as §1

COS-7 cells = assay: Growth of COS-7 cells with NMU in the medium; type: cell-based; conditions: addition into the medium, dose-dependent
A549 cells [3] = assay: Monastrol treatment of A549 cells, microscopy and time-lapse video-microscopy; type: cell-based, human; conditions: most non-mitotic cells
A549 cells [4] = assay: Nocodazole treatment of A549 cells, immunocytochemistry; type: cell-based, human; conditions: 10 μM, four hours
Text: We also investigated the endogenous location of KOC1 and KIF11 particles on the ultrafine structure of microtubules bridging individual A549 cells by an immunocytochemical study, using affinity-purified anti-KOC1- or anti-KIF11 for primary antibody and Alexa594-labeled anti-rabbit IgG for secondary antibody (Molecular Probe) and anti-alpha-tubulin-FITC monoclonal antibody. […] Moreover, no particle was found on the residual structure between the cells. […] To further clarify the detailed mechanism by which the KOC1-KIF11 complex transports mRNAs in NSCLC cells, we have searched for other component(s) that might be interacting with KIF11. Immunoprecipitation with anti-KIF11 polyclonal antibody using a lysate of LC319 cells identified a 150-kDa protein, which was later determined to be a dynactin 1 (DCTN1; p150, glued homolog, Drosophila) by MALDI-TOF mass-spectrometric analysis. DCTN1 is the largest subunit of DCTN, which binds to the cytoplasmic motor-protein dynein and activates vesicle transport along microtubules (Holzbaur, E. L. & Tokito, M. K. Genomics 31, 398-399 (1996); Tokito, M. K. et al., Mol. Biol. Cell 7, 1167-1180 (1996)), or binds to KIF11 to probably participate in centrosome separation (Blangy, A. et al., J. Biol. Chem. 272, 19418-19424 (1997)). […]

GHSR1b/NTSR1 = target: T3, GHSR1b/NTSR1 (Homo sapiens, UniProt P30989+Q92847); assay: Intracellular Ca2+ mobilization assay in LC319 cells; type: cell-based
T3 construct: endogenous in cells; host or cells: LC319
Experimental: Trypsinized LC319 cells were seeded onto poly-D-lysine coated 384-well black-wall, clear-bottom microtiter plate (1.0×10^4 cells/ml) 24 hours prior to assay. Cells were loaded for 1 hour with […] Fluo-4-AM fluorescent indicator dye in assay buffer (Hank's balanced salts solution, 20 mM HEPES, 2.5 mM probenecid), washed three times with assay buffer, and then returned to the incubator for 10 min before assay on a fluorometric imaging plate reader (FLIPR, Molecular Devices). Maximum change in fluorescence over base line was used to determine the response of the cells to the NMU-25 peptides stimulation.

NTSR1 = assay: Ligand-receptor binding assay, COS-7 cells transfected with NTSR1; parameters: species or system human
Experimental: (§2) To identify direct binding of NMU-25 to its candidate receptors, GHSR1a, GHSR1b and NTSR1, the following experiments were performed. The entire coding region of each receptor gene was amplified by RT-PCR using primers
(§3) The products were digested with EcoR1 and BainH1 and cloned into appropriate sites of p3XFLAG-CMV10 vector (Sigma-Aldrich Co.). COS-7 cells were transfected with GHSR1b or NTSR1 expression plasmids using FuGENE6, as described above. Transfected COS-7 cells were cultured with 0.5 μM rhodamine-labeled NMU-25 peptide (NMU-25-rhodamine: Phoenix Pharmaceuticals. Inc.) for 12 hours, washed five times in PBS(−), and fixed in 4% paraformaldehyde solution for 60 min at room temperature. Then the cells were incubated with antibodies to FLAG-tagged GHSR1a, GHSR1b, or NTSR1 proteins (Sigma-Aldrich Co.), stained with a goat anti-mouse secondary antibody conjugated to FITC (Cappel) and viewed under laser-confocal microscopy (TCS SP2 AOBS: Leica Microsystems). […]
(§4) To confirm the binding of NMU-25 to the candidate receptors, flow-cytometric analysis was performed using the same series of COS-7 cells. […] The population of cells binding to rhodamine-labeled NMU-25 was determined by flow cytometry.

GHSR1b = assay: Ligand-receptor binding assay, COS-7 cells transfected with GHSR1b; parameters: species or system human
Experimental: as §2, §3, §4

FOXM1 = assay: Induction of FOXM1 in LC319 cells, semiquantitative RT-PCR; type: cell-based, human; conditions: LC319, 100 μM, versus BSA control
Experimental: Expression of the candidate genes was additionally detected by semiquantitative RT-PCR using mRNAs isolated at 72 and 96 hours from LC319 cells treated with 1 μM NMU-25 or BSA at the time point of 0 and 48 hours.
Therefore, we chose FOXM1 for further analysis. To determine specific induction of the FOXM1 by the NMU ligand-receptor signaling, LC319 cells expressing GHSR1b and NTSR1 were cultured in the presence of NMU-25 or BSA (control) at final concentrations of 100 μM in the culture media.

[5] = COS-7, NMU-25-rhodamine 0.5 μM, 12 hours

T3 sequence (Q92847 1-289 isoform Q92847-2): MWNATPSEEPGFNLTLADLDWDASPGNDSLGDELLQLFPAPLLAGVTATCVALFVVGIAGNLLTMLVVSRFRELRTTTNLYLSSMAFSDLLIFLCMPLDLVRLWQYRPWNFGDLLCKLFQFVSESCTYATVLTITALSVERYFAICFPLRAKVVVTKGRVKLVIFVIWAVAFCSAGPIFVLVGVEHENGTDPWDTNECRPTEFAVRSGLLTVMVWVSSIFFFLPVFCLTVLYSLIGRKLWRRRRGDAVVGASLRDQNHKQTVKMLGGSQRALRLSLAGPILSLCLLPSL
T3 sequence (P30989 whole entry): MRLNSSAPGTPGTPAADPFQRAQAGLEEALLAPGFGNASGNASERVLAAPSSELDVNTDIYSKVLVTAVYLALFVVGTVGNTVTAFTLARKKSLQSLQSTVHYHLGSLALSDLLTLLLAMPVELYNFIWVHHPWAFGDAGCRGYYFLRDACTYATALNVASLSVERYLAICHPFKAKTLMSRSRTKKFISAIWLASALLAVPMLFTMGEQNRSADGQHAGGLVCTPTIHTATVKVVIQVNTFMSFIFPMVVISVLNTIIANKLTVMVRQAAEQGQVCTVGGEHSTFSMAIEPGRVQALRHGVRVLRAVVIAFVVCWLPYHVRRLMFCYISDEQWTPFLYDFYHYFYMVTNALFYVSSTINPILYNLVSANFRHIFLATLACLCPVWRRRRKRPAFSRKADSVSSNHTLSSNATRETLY

Cy5-labeled NMU-25: Cy5-labeled NMU-25 peptide (FRVDEEFQSPFASQSRGYFLFRPRN; ends and bridges not checked; also: Cy5-labeled, site not given here)
binding to the cell surface [1]: detected binding
binding to the cell surface [2]: detected binding

NMU: neuropeptide neuromedin U added into the medium (FRVDEEFQSPFASQSRGYFLFRPRN)
growth of COS-7 cells (COS-7 cells): promoted the growth

CCOC(=O)C1=C(C)NC(=S)NC1c1cccc(O)c1 (centres unmarked) [monastrol]
time to loss of protrusion and connection to adjacent cells, non-mitotic cells (A549 cells [3]): ≤ 2 h

COC(=O)Nc1nc2ccc(C(=O)c3cccs3)cc2[nH]1 [nocodazole]
effect on endogenous KOC1, KIF11 and microtubules (A549 cells [4]): collapse and aggregation of endogenous KOC1 and KIF11, along with the depolymerization of microtubules in the cytoplasm

NMU-25: NMU-25 peptide, ligand neuromedin U (FRVDEEFQSPFASQSRGYFLFRPRN)
intracellular Ca2+ flux / mobilization (GHSR1b/NTSR1): but not Ca^2+ flux
co-localization with FLAG-tagged NTSR1 (confocal microscopy) (NTSR1; [5]): located together on the cell membrane
co-localization with FLAG-tagged GHSR1b (confocal microscopy) (GHSR1b; [5]): located together on the cell membrane
expression of FOXM1 (FOXM1): higher expression of FOXM1

rhodamine-labeled NMU-25: rhodamine-labeled NMU-25 peptide (Phoenix Pharmaceuticals) (FRVDEEFQSPFASQSRGYFLFRPRN; ends and bridges not checked; also: rhodamine-labeled, site not given here)
binding to surface of COS-7 cells expressing NTSR1 (flow cytometry) (NTSR1; dose dependent): binding
binding to surface of COS-7 cells expressing GHSR1b (flow cytometry) (GHSR1b; dose dependent): binding
